Values of other authors as cited in PMC4358631 (Journal of Medicinal Chemistry, 2014).

Molecular target: α3β4 nAChR (Rattus norvegicus, UniProt P04757+P12392)
Conditions: compounds bind to the central lumen of the receptor

Sequence of α3β4 nAChR (P04757 26-499): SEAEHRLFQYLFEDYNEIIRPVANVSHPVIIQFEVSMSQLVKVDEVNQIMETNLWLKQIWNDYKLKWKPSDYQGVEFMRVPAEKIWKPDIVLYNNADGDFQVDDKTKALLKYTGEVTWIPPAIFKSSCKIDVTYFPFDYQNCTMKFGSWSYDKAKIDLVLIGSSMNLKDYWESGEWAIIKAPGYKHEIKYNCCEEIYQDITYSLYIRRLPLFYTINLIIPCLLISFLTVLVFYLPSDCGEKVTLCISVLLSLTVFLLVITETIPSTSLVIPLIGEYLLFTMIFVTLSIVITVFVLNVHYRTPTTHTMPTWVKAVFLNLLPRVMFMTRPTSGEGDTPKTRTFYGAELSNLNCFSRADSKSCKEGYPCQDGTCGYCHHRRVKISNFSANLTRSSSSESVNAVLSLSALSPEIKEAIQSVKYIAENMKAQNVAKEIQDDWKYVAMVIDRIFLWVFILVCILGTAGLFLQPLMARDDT
Sequence of α3β4 nAChR (P12392 22-495 limits assumed): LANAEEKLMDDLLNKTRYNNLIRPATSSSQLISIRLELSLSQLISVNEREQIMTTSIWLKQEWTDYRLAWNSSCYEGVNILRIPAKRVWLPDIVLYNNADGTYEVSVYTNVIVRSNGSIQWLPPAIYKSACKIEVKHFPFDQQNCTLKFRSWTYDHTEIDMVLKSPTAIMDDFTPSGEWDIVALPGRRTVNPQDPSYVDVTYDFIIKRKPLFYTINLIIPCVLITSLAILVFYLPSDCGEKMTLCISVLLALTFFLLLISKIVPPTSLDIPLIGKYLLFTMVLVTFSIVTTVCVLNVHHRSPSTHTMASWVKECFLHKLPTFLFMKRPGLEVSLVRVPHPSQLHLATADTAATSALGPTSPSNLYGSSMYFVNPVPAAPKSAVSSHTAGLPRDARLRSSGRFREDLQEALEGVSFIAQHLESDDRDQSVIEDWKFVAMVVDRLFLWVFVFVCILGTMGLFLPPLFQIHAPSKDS

Structure (SMILES) | inhibition of [3H]epibatidine binding
COCC[C@H]1CC2CN3CCc4c([nH]c5ccccc45)[C@](C(=O)OC)(C2)[C@H]13 [18-MC, 18-methoxycoronaridine] | do not inhibit
CNC1(C)C2CCC(C2)C1(C)C (centres unmarked) [mecamylamine] | do not inhibit
